Measured values taken from patent US12162879B2, “Pyridopyrimidine derivative, preparation method therefor and medical use thereof” (Jiangsu Hengrui Medicine Co., Ltd., priority 2018, dated 2024).

Experiments:
hERG potassium channel = hERG potassium channel (Homo sapiens (Human), UniProt Q12809); assay: Blocking effect on hERG potassium current, automatic patch clamp (Patchliner) on HEK293-hERG stable cell line; format: cell-based
Procedure: The blocking effect of the compounds of the present application on hERG potassium current was determined using an automatic patch-clamp on a stable cell line transfected with hERG potassium channels.
The HEK293 cell line was transfected with pCDNA3.1(+) that had constructed the hERG gene. The monoclonal HEK293-hERG stable cell line was screened by adding G418. The HEK293-hERG stable cell line was subcultured at a density of 1:4 in MEM/EBSS medium (10% FBS, 400 μg/mL G418, 1% MEM non-essential amino acid solution (100×), 1% sodium pyruvate solution) and cultured within 48 to 72 hours for the automatic patch clamp experiment. On the day of the experiment, the cells were digested with 0.25% trypsin (life technologies, 12563-029), collected by centrifugation and resuspended with extracellular fluid (140 mM NaCl, 4 mM KCl, 1 mM MgCl2, 2 mM CaCl2, 5 mM MD glucose monohydrate, 10 mM HEPES, pH 7.4, 298 mOsmol) to obtain a cell suspension. The cell suspension was placed on the cell bank of the Patchliner instrument, the Patchliner instrument used a negative pressure controller to apply the cells to the chip (NPC-16), and the negative pressure attracted individual cells to the wells of the chip. When the whole cell mode was formed, the instrument got the hERG current according to the set hERG current-voltage program, and then the instrument automatically perfused the compound from low to high concentration. The currents at each concentration of the compound and the blank control current were analyzed by the HEAK EPC 10 patch clamp amplifier (Nanion), Pathlinersoftware and data analysis software provided by Pathcontrol HTsoftware.

[1] = target: CYP3A4 (midazolam metabolite site) (Homo sapiens (Human), UniProt P08684); assay: Inhibition of enzyme activity of midazolam metabolite site of CYP3A4 in human liver microsome; format: in vitro ADME; details: midazolam probe substrate, 30 minutes
CYP3A4 (midazolam metabolite site), sequence (P08684 whole entry): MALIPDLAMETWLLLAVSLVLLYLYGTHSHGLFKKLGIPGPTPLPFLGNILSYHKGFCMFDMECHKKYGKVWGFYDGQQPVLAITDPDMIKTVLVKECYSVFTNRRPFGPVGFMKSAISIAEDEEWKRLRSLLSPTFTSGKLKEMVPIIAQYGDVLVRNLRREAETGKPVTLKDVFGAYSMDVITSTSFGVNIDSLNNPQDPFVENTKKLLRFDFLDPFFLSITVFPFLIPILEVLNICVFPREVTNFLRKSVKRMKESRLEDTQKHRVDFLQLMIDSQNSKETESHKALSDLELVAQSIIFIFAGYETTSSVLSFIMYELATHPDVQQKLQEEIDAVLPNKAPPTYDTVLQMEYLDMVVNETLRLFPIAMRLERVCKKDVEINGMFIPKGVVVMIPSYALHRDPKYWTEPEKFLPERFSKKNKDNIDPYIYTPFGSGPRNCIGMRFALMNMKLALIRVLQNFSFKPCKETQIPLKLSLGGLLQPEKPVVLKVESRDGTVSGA
Procedure: The effect of the compounds of the present invention on the enzyme activity of midazolam metabolite site of CYP3A4 in human liver microsomes was determined by the following experimental method.
• 1. Phosphate buffer solution (PBS) (Shanghai Basalmedia Technologies Co., Ltd., B320, similarly hereinafter); • 2. NADPH (Sigma N-1630); • 3. Human liver microsome (Corning Gentest); • 4. ABI QTrap 4000 liquid chromatograph/mass spectrometer (AB Sciex); • 5. Inertsil C8-3 column, 4.6×50 mm, 5 μm (Dikma Technologies Inc., USA); and • 6. CYP probe substrate (15 μM midazolam, SIGMA UC429) and positive control inhibitor (ketoconazole, SIGMA K1003). II. Experimental Procedures
100 mM PBS buffer was formulated, which was then used to formulate 2.5 mg/ml human microsome solution and 5 mM NADPH solution. The 5× concentration of the compound working solution was diluted with PBS in gradients (150, 50, 15, 5, 1.5, 0.15, 0.015, 0 μM). The 5× concentration of ketoconazole working solution was diluted with PBS in gradients (150, 50, 15, 5, 1.5, 0.15, 0.015, 0 μM). Midazolam working solution was diluted with PBS to a concentration of 15 μM.
20 μl of 2.5 mg/ml microsome solution, 20 μl of 15 μM midazolam working solution, 20 μl of MgCl2 solution and 20 μl of the compound working solution (150, 50, 15, 5, 1.5, 0.15, 0.015, 0 μM, different reaction systems for each concentration) were mixed well. For the positive control group, the compound was replaced with the same concentration of ketoconazole. The mixture together with 5 mM NADPH solution was pre-incubated at 37° C. for 5 minutes. After 5 minutes, 20 μl of NADPH was added to each well, the reaction was initiated, and the plate was incubated for 30 minutes. All the incubated samples were present in duplicate. After 30 minutes, 250 μl of acetonitrile containing internal standard (100 ng/ml camptothecin) was added to all samples, mixed well, shaken at 800 rpm for 10 minutes, and then centrifuged at 3700 rpm for 10 minutes. 80 μl of the supernatant was taken and analyzed by LC-MS/MS.
The data was calculated by Graphpad Prism to obtain the IC50 values of the compounds on the midazolam metabolite site of CYP3A4, which are shown in Table 2.

human TLR7 = human TLR7 (Homo sapiens (Human), UniProt Q9NYK1); assay: Agonist activity on human TLR7 in HEK-Blue hTLR7 cells; format: cell-based; details: 16 hours, OD 620 nm
human TLR7, sequence (Q9NYK1 27-1049): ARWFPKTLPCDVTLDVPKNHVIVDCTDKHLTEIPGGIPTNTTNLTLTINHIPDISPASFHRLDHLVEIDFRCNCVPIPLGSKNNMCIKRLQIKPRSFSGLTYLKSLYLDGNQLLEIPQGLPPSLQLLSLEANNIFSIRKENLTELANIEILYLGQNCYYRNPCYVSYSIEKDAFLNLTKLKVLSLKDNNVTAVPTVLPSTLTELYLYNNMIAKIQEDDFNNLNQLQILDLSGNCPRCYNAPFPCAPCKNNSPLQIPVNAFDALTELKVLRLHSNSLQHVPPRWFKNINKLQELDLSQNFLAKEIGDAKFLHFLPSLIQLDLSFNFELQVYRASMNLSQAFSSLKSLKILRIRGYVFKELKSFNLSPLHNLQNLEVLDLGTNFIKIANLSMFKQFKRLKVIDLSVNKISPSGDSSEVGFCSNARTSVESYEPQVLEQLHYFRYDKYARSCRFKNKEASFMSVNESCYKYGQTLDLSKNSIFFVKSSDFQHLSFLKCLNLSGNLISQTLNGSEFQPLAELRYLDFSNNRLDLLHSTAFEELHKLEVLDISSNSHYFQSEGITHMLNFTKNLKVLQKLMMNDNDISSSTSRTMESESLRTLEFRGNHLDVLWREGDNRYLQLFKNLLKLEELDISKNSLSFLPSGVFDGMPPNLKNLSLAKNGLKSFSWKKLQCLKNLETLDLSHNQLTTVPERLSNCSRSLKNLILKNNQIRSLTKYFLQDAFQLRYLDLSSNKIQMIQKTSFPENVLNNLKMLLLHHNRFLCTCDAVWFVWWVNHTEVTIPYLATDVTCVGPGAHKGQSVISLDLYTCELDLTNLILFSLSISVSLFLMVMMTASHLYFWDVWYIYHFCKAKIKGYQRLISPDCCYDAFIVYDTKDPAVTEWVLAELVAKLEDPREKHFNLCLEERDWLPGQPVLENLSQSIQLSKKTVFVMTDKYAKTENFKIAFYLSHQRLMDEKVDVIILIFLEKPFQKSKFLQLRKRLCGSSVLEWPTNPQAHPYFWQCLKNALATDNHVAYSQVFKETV
Procedure: • 1. DMEM(Gibco, 10564-029); • 2. Fetal bovine serum (GIBCO, 10099); • 3. Trypan blue solution (Sigma, T8154-100 ML); • 4. Flexstation 3 multi-function microplate reader (Molecular Devices); • 5. HEK-Blue™ hTLR8 cell line (InvivoGen, hkb-hTLR8), or HEK-Blue™ hTLR7 cell line (InvivoGen, hkb-hTLR7); • 6. HEK-Blue detection reagent (InvivoGen, hb-det3); and • 7. Phosphate buffer solution (PBS) pH 7.4 (Shanghai Basalmedia Technologies Co., Ltd., B320). II. Experimental Procedures a. Determination of Agonist Activity on Human TLR8
A bag of HEK-Blue detection dry powder was dissolved in 50 ml of water free of endotoxin, and the solution was then placed in an incubator at 37° C. for 10 minutes followed by sterile filtration to prepare a HEK-Blue detection medium. The compound was firstly formulated into a 20 mM stock solution, then diluted with pure DMSO to a maximum concentration of 6×10^6 nM, and a total of 10 points were obtained by a 3-fold gradient dilution. The above formulated compound was firstly diluted 20-fold with the medium, then 20 μl of the diluted compound was added to each well.
The supernate was removed from the HEK-Blue™ hTLR7 cells, to which 2-5 ml of pre-warmed PBS was then added. The cells were placed in an incubator for 1-2 minutes, gently pipetted, and counted by trypan blue staining. The cells were re-suspended in the HEK-Blue detection medium to adjust the concentration to 2.2×10^5 cells/ml. 180 μl of cells was added to the above 96-well plate comprising 20 μl of the compound, and incubated at 37° C. for 16 hours.
The corresponding OD values were obtained by a microplate reader at a wavelength of 620 nm, and the EC50 values of the compounds were calculated by Graphpad Prism.

hERG potassium channel, sequence (Q12809 whole entry): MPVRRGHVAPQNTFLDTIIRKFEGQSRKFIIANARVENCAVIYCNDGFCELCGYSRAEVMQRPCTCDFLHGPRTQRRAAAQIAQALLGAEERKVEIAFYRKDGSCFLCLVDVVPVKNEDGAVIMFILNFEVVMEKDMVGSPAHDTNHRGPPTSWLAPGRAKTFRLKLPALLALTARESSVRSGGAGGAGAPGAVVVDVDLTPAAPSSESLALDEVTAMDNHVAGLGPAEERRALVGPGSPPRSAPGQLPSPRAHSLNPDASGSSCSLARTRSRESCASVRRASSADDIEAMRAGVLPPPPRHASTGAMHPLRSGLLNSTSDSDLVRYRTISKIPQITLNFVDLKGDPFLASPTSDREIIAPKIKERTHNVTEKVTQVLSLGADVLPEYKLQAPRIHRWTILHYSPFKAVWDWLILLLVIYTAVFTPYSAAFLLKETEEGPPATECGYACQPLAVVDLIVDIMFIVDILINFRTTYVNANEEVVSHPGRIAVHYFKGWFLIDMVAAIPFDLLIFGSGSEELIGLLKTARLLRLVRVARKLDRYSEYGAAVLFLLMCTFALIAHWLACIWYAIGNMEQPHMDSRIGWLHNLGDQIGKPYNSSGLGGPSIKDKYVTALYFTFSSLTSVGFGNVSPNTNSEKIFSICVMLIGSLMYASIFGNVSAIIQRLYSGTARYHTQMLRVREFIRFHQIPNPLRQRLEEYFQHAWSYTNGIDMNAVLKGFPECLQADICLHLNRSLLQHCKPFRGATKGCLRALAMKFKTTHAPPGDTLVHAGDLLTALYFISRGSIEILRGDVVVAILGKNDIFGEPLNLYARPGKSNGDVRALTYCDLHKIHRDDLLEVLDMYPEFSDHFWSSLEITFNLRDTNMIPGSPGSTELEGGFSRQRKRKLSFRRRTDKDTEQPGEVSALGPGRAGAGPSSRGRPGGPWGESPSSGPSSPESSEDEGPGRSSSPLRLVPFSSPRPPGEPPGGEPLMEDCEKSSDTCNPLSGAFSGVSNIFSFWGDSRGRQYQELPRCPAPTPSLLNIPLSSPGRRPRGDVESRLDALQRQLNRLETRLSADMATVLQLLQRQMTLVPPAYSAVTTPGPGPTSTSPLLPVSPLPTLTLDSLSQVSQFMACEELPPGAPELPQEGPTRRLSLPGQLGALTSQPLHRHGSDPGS

SMILES	IC50 [1]	EC50 (human TLR7)	Emax (human TLR7)	IC50 (hERG potassium channel)
CCCC[C@](C)(CO)Nc1nc(N)nc2cc(-c3ccc(CN4CCN(C)CC4)nc3)cnc12 [Example 6, (R)-2-((2-Amino-7-(6-((4-methylpiperazin-1-yl)methyl)pyridin-3-yl)pyrido[3,2-d]pyrimidin-4-yl)amino)-2-methylhexan-1-ol]	> 30 µM	> 30 µM	14%	26 µM
CCCC[C@](C)(CO)Nc1nc(N)nc2cc(-c3cnc(C4CCN(C)CC4)nc3)cnc12 [Example 8, (R)-2-((2-Amino-7-(2-(1-methylpiperidin-4-yl)pyrimidin-5-yl)pyrido[3,2-d]pyrimidin-4-yl)amino)-2-methylhexan-1-ol]	> 30 µM	> 19 µM	73%	> 30 µM

Second part, led by results:

IC50 [1]	EC50 (human TLR7)	Emax (human TLR7)	SMILES	IC50 (hERG potassium channel)
27 µM			CCCC[C@](C)(CO)Nc1nc(N)nc2cc(-c3ccc(CN4CCCC4)nc3)cnc12 [Example 2, (R)-2-((2-Amino-7-(6-(pyrrolidin-1-ylmethyl)pyridin-3-yl)pyrido[3,2-d]pyrimidin-4-yl)amino)-2-methylhexan-1-ol]	7 µM
> 30 µM	> 30 µM	12%	CCCC[C@](C)(CO)Nc1nc(N)nc2cc(-c3ccc(C4CCN(C)CC4)nc3)cnc12 [Example 4, (R)-2-((2-Amino-7-(6-(1-methylpiperidin-4-yl)pyridin-3-yl)pyrido[3,2-d]pyrimidin-4-yl)amino)-2-methylhexan-1-ol]	14 µM
> 30 µM	> 30 µM	14%	CCCCC(C)(CO)Nc1nc(N)nc2cc(-c3ccc(CN4CCN(C)CC4)nc3)cnc12 (stereo not drawn) [Example 5, 2-((2-Amino-7-(6-((4-methylpiperazin-1-yl)methyl)pyridin-3-yl)pyrido[3,2-d]pyrimidin-4-yl)amino)-2-methylhexan-1-ol]	17 µM
